Assay results taken from US8372840B2, “Potassium channel blockers” (Xention Limited, priority 2008, dated 2013).

How the values were obtained:
hKv1.5 = hKv1.5 (Homo sapiens, UniProt P22460); assay: Kv1.5 Autopatch Electrophysiology (whole cell patch-clamp); format: cell-based; settings: compound 1 μM, step to 0 mV for 1000 ms, total charge, room temperature (22-24° C.); for inhibition at 1 µM: read-out: hKv1.5 % inh.
Method: The external bathing solution contained (in mM): 150 NaCl, 10 KCl, […], 3 MgCl2, 1 CaCl2, 10 HEPES, pH 7.4. Patch pipettes were filled with an electrode solution of composition (in mM): 160 KCl, 0.5 MgCl2, 10 HEPES, 1 EGTA, pH 7.4 with KOH.
Compounds were dissolved in DMSO (100%) and made up in the external bather at a concentration of 1 μM. All experiments were conducted at room temperature (22-24° C.).
A cell suspension (10 ml), with a density of 100,000 cells/ml, was aliquoted into a 15 ml centrifuge tube and transferred to an incubator (37° C., 5% CO2) for approximately one hour before use. Following 60 min incubation, a tube was taken and centrifuged at 1000 rpm for 4 mins at room temperature. 9.5 ml supernatant was thence discarded, leaving a cell pellet at the bottom of the tube. The pellet was then resuspended using 100 μl of cold (4° C.), filtered (0.22 μm), 0.2% BSA/bather solution (0.02 g BSA/10 ml bather). The bottom of the tube was manually agitated gently until the solution became cloudy with cells. The 100 μl cell resuspension solution was then stored on the bench at 4° C. (using a Peltier-based temperature control device) until used.
A length of capillary glass (1B150E-4, WPI) was dipped into the cell suspension solution, such that ˜3 cm column of fluid was taken up by capillary action. A Ag/AgCl wire was dropped into the non-dipped end of the capillary also. The outside of the solution-filled end of the capillary was then dried and the capillary was loaded into the AutoPatch™
(§1) Borosilicate glass patch pipettes (from 1.5 mm OD, thin-walled filamented, GC150-TF capillary glass, Harvard) were pulled using a DMZ pipette puller (Zeitz Instruments), and were back-filled using the internal pipette solution, being careful that no bubbles remain at the tip or in the body of the pipette. Patch pipettes typically had resistances of 2.3-3.5 MΩ. Once filled, the pipette tip and a proportion of the shaft (˜15 mm) were dipped into Sigmacote (Sigma). The recording pipette was then loaded into the AutoPatch™. Automated patch-clamping was initiated by the operator, but thereafter AutoPatch.exe continued the experiment providing that pre-set conditions and criteria were satisfied.
Whole cell patch-clamp recordings were made using the AutoPatch™ rig, which incorporated an EPC9 amplifier (HEKA, Germany) under control of Pulse software (v8.54, HEKA, Germany), a motion controller with 2 translators (Newport, UK), valve controller (VF1) and a c-level suction device all at room temperature (22-24° C.). This equipment was completely under the control of AutoPatch.exe and operator intervention was only made when there was a requirement to refill the drug reservoirs or to prevent the loss of a cell due to a technical error. Cells with an Rseries greater than 18 MΩ were discounted from the experiment.
Qualification stages prior to perfusion and drug application ensured that the observed current met the criteria for the experiment. Only those cells with an IK>500 pA were used for experiments. Cells were continuously perfused with external solution at a flow rate of 1.8-2 ml/minute. […] Online analysis of the hKv1.5 current during the application of compounds was performed by the AutoPatch™ software. Voltage-step protocols and analysis of data was performed as described for conventional electrophysiology.
Electrophysiology voltage-step protocols and analysis of data was performed as follows. Data was sampled at 5 kHz, and filtered with a −3 dB bandwidth of 2.5 kHz. Cells were held at a voltage of −80 mV. Currents were evoked to a voltage step for 1000 ms in duration at 0 mV every 5 s. Currents were analysed using Pulsefit software (v8.54, HEKA, Germany), with the total charge measured during the whole of the voltage step. All other plots were produced using Igor Pro (WaveMetrics).

human Kv1.3 = biological target: T1, human Kv1.3 (Homo sapiens, UniProt P22001); assay: Kv1.3 Autopatch Electrophysiology (whole cell patch-clamp, stably transfected CHO cells); format: cell-based; settings: compound 1 μM, step to +30 mV for 500 ms, inhibition of total charge relative to control, room temperature; for inhibition at 1 µM: CHO, read-out: hKv1.3 % inh.
T1 construct: expressed in transfected cells; host or cells: stably transfected cells grown in medium for CHO cells
Method: Cells stably transfected with cDNA for human Kv1.3 (in pcDNA3.1) were grown in Ex-cell 302 serum-free medium for CHO cells, supplemented with 10 μl/ml [100×] glutamine, 500 μg/ml G418 ([…]), and 1% HT supplement (50×, hypoxanthine and thymidine). Compounds were tested on these cells using the AutoPatch technology in whole cell mode.
The external bathing solution contained (in mM): 150 NaCl, 10 KCl, 1 MgCl2, 3 CaCl2, 10 HEPES, pH 7.4 with NaOH. Patch pipettes were filled with an electrode solution of composition (in mM): 100 K-Gluconate, 20 KCl, 1 MgCl2, 1 CaCl2, 10 HEPES, 11 EGTA, 5 ATP-Na2, 2 Glutathione pH 7.2 with KOH.
Compounds were dissolved in DMSO (100%) and made up in the external bather at a concentration of 1 μM immediately prior to use. All experiments were conducted at room temperature.
A cell suspension (10 ml), with a density of 6×10^6 cells, was aliquoted into a 15 ml centrifuge tube and stored at 4° C. before use. Prior to use a tube was taken and centrifuged at 1000 rpm for 4 mins at room temperature. The supernatant was then discarded, leaving a cell pellet at the bottom of the tube. The pellet was then resuspended using 1 ml of cold (4° C.), filtered (0.22 μm), 0.05% BSA/bather solution (0.05 g BSA/100 ml bather). The bottom of the tube was manually agitated followed by gentle tituration. The cell suspension was then placed in the AutoPatch™ temperature controlled cell-hotel at 14° C. and regularly titurated.
as §1, with “A length of Teflon capillary tubing was dipped into the cell suspension solution, and a column of fluid was taken up by negative pressure. The column of fluid was in electrically connectivity with a Ag/AgCl reference electrode. Borosilicate” for “Borosilicate”, “remained” for “remain”, “2.5-3.5” for “2.3-3.5”, “pipettes were placed in a multiwell array and mounted on” for “pipette was then loaded into”, “AutoPatch™ machine.” for “AutoPatch™.”, “patch-clamping and drug-application” for “patch-clamping”
Whole cell patch-clamp recordings were made using the AutoPatch™ rig, which incorporated an EPC9 or EPC10 amplifier (HEKA, Germany) under control of Pulse software (v8.54 or v8.76, HEKA, Germany), a cell applicator, automated drug application system (DAS), valve controller (VF1) and a suction device all at room temperature. This equipment was completely under the control of AutoPatch.exe and operator intervention was only made when there was a requirement to refill the bather reservoirs or to prevent the loss of a cell due to a technical error.
Qualification stages prior to perfusion and drug application ensured that the observed current met the criteria for the experiment. Cells were continuously perfused with external solution at a flow rate of ˜2 ml/minute.
Electrophysiology voltage-step protocols and analysis of data was performed as follows. Data were sampled at 5 kHz, and filtered with a −3 dB bandwidth of 2.5 kHz. Cells were held at a voltage of −80 mV. Currents were evoked by a voltage step to +30 mV for 500 ms in duration applied every 15 s. Online analysis of the hKv1.3 current during the application of compounds was performed by the Pulse (v8.54 or v8.76, HEKA, Germany), Excel (Microsoft, USA) and AutoPatch™ software, with the total charge measured during the whole of voltage step Inhibition of charge movement in the presence of drug was calculated relative to control.

T1 sequence (P22001 whole entry): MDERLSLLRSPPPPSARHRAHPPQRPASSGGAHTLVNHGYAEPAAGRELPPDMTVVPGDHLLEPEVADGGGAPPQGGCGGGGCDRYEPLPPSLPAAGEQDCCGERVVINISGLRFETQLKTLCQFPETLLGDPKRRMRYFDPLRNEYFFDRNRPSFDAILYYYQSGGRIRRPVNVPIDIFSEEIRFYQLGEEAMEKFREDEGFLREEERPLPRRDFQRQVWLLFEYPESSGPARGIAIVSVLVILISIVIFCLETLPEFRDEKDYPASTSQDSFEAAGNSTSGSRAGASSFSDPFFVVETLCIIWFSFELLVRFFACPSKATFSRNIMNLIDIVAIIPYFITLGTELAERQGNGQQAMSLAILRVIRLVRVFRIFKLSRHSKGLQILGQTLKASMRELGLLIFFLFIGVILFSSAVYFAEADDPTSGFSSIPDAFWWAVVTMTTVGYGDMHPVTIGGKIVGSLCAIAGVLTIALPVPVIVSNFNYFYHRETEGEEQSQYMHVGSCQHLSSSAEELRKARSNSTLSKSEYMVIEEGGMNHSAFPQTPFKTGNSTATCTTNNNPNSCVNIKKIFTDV
Chain of hKv1.5 (P22460 whole entry): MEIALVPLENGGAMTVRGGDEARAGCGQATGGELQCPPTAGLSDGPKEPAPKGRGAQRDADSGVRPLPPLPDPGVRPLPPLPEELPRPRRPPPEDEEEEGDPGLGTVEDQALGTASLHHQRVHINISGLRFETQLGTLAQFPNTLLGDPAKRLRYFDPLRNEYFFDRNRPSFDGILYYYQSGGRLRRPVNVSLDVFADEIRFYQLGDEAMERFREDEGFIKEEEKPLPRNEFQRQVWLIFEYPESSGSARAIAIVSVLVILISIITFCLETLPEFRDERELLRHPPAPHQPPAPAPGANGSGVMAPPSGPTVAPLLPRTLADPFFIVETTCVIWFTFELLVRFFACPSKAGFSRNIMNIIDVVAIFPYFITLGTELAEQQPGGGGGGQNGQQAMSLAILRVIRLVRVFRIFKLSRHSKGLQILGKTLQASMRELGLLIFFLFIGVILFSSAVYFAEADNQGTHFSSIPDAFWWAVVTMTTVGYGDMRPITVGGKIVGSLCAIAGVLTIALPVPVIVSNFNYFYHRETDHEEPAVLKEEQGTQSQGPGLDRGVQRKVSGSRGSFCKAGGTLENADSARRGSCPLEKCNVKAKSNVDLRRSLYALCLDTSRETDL

Compound	hKv1.5 % inh. (hKv1.5) [%]	hKv1.3 % inh. (human Kv1.3) [%]	inhibition at 1 µM (hKv1.5) [%]	inhibition at 1 µM (human Kv1.3) [%]
1-Methyl-1H-imidazole-4-sulfonic acid (4-chloro-benzyl)-(3-morpholin-4-yl-phenyl)-amide [Example 36]	44	83		
1-Methyl-1H-pyrazole-3-sulfonic acid (4-chloro-benzyl)-(3-morpholin-4-yl-phenyl)-amide [Example 40]	95	99		
1-Methyl-1H-pyrazole-3-sulfonic acid benzyl-(3-morpholin-4-yl-phenyl)-amide [Example 41]	33	92		
O=S(=O)(c1ccccc1)N(Cc1ccccc1)c1cccc(N2CCOCC2)c1 [Example 2, N-Benzyl-N-(3-morpholin-4-yl-phenyl)-benzenesulfonamide]			62	76
Cn1cncc1C(=O)Nc1cccc(N(Cc2ccccc2)S(=O)(=O)c2ccccc2)c1 [Example 3, 3-Methyl-3H-imidazole-4-carboxylic acid [3-(benzenesulfonyl-benzyl-amino)-phenyl]-amide]			73	90
CNC(=O)COc1cccc(N(Cc2ccc(Cl)cc2)S(=O)(=O)c2ccn(C)n2)c1 [Example 7, 2-{3-[(4-Chloro-benzyl)-(1-methyl-1H-pyrazole-3-sulfonyl)-amino]-phenoxy}-N-methyl-acetamide]			93	99
O=C(Cc1ccccc1)Nc1cccc(N(Cc2ccccc2)S(=O)(=O)c2ccccc2)c1 [Example 11, N-[3-(Benzenesulfonyl-benzyl-amino)-phenyl]-2-phenyl-acetamide]			77	86
COCC(=O)Nc1cccc(N(Cc2ccccc2)S(=O)(=O)c2ccccc2)c1 [Example 12, N-[3-(Benzenesulfonyl-benzyl-amino)-phenyl]-2-methoxy-acetamide]			58	85
Cc1nc(S(=O)(=O)N(Cc2ccccc2)c2cccc(N3CCOCC3)c2)cn1C [Example 19, 1,2-Dimethyl-1H-imidazole-4-sulfonic acid benzyl-(3-morpholin-4-yl-phenyl)-amide]			42	75

Results, then the compound that gave them:

hKv1.5 % inh. (hKv1.5) [%]	hKv1.3 % inh. (human Kv1.3) [%]	inhibition at 1 µM (hKv1.5) [%]	inhibition at 1 µM (human Kv1.3) [%]	Compound
77	99			1-Methyl-1H-pyrazole-3-sulfonic acid (4-chloro-benzyl)-[3-(2-oxo-imidazolidin-1-yl)-phenyl]-amide [Example 42]
71	96			1-Methyl-1H-pyrazole-3-sulfonic acid (4-chloro-benzyl)-[3-(2-oxo-pyrrolidin-1-yl)-phenyl]-amide [Example 38]
56	65			4-Methyl-3,4-dihydro-2H-benzo[1,4]oxazine-7-sulfonic acid benzyl-[3-(2-oxo-pyrrolidin-1-yl)-phenyl]-amide [Example 18]
		66	86	O=C1NCCN1c1cccc(N(Cc2ccccc2)S(=O)(=O)c2ccccc2)c1 [Example 1, N-Benzyl-N-[3-(2-oxo-imidazolidin-1-yl)-phenyl]-benzenesulfonamide]
		91	88	O=S(=O)(c1ccccc1)N(Cc1ccccc1)c1cccc(N2CCN(c3ccccc3)CC2)c1 [Example 5, N-Benzyl-N-[3-(4-phenyl-piperazin-1-yl)-phenyl]-benzenesulfonamide]
		72	91	Cn1ccc(S(=O)(=O)N(Cc2ccc(Cl)cc2)c2cccc(OCc3ccccn3)c2)n1 [Example 6, 1-Methyl-1H-pyrazole-3-sulfonic acid (4-chloro-benzyl)-[3-(pyridin-2-ylmethoxy)-phenyl]-amide]
		77	94	O=S(=O)(c1ccccc1)N(Cc1ccccc1)c1cccc(N2CCNC(c3ccccc3)C2)c1 (stereo not shown) [Example 14, N-Benzyl-N-[3-(3-phenyl-piperazin-1-yl)-phenyl]-benzenesulfonamide]
			72	Cn1ccc(S(=O)(=O)N(Cc2ccccc2)c2cccc(N3CCNC3=O)c2)n1 [Example 43, 1-Methyl-1H-pyrazole-3-sulfonic acid benzyl-[3-(2-oxo-imidazolidin-1-yl)-phenyl]-amide]
		91	100	O=C1NCCN1c1cccc(N(Cc2ccc(Cl)cc2)S(=O)(=O)c2ccccc2)c1 [Example 46, N-(4-Chloro-benzyl)-N-[3-(2-oxo-imidazolidin-1-yl)-phenyl]-benzenesulfonamide]
		99	95	Cn1ccc(S(=O)(=O)N(Cc2ccc(Cl)cc2)c2cccc(OCC(=O)Nc3ccccn3)c2)n1 [Example 49, 2-{3-[(4-Chloro-benzyl)-(1-methyl-1H-pyrazole-3-sulfonyl)-amino]-phenoxy}-N-pyridin-2-yl-acetamide]
